Where “and” joins values, the source holds several entries; their conditions need not be identical. Equal entries are not always repeated.
Legend:
[1] = cited from earlier work
[2] = Intensity and duration of fluorescence of diluted probes bound to caries; conditions: deep and shallow lesions
Procedure: (§1) Probes were tested for appropriate concentration, kinetics of binding and retention. Intensity of the illumination light, and the size of the illumination light beam were varied, and data were recorded for each probe. […] The concentration of each probe was varied to determine an optimum concentration for binding during a time period suitable for dental use. Durations of contacting were also tested, for example about 10 seconds, about 20 seconds, about 40 seconds, or about 60 seconds.

[3] = Detection probes on interproximal models of extracted human teeth; conditions: for optical signal of early stage caries lesion with bound probe (photograph): synthetic tooth preparation, FIG. 3-8
Procedure: Interproximal models of extracted human teeth (molars and premolars) were fabricated using silicon impression materials. Interproximal enamel caries at about […] depth and at about 1.5 mm depth were prepared by using areas of interproximal contact regions. The dental preparations having synthetic caries were assessed by radiographic films (bitewings) and a microscope.
A cotton ball was saturated with the detection probe, and placed in contact with the region of the interproximal enamel caries. The bound probe was observed by illuminating over a varying set of different wavelengths of excitation light, followed by detecting light of fluorescent emissions. Furthermore, absorbance of the illuminating wavelengths was detected as appropriate for each probe.
Each tooth preparation having interproximal enamel caries and bound probe was illuminated and photographed.
as §1

[4] = part of regular human diet or excess excreted; cited from earlier work
[5] = Hydrogen peroxide removal of OsteoSense 750 from five teeth having caries, absorbance at 750 nm; conditions: teeth A to E

For `Cc1cc2nc3c(=O)[nH]c(=O)nc-3n(C[C@H](O)[C@H](O)[C@H](O)CO)c2cc1C` [Riboflavin], the water solubility [1] is listed as “water soluble”.
With `CCN1C(=CC=CC=CC=CC2=[N+](CCCCCC(=O)O)c3ccc(S(=O)(=O)O)cc3C2(C)C)C(C)(C)c2cc(S(=O)(=O)[O-])ccc21` [Cy7] the “fluorescent intensity compared to IR820 (ICG)” value ([2]; 1:10 and 1:100 dilutions) was “greater fluorescent intensity at each concentration and lesion depth compared to IR820 (ICG)” and the “retained fluorescence intensity compared to CardioGreen (ICG)” value ([2]; diluted 1:10) was “retained much greater intensity in both deep and shallow lesions compared to images of CardioGreen (ICG) diluted 1:10”.
In the case of `C1=Cc2cc3ccc(cc4nc(cc5ccc(cc1n2)[nH]5)C=C4)[nH]3` [Porphyrin], the “optical signal of early stage caries lesion with bound probe (photograph)” value (from here on “optical signal … with bound probe (photograph)”) [3] is listed as “Fluorescence of an early stage caries lesion was observed” and the known toxicity [4] is listed as “no known toxicity”.
For `C=Cc1c(C)c2cc3nc(c4c5[n-]c(cc6nc(cc1[n-]2)C(C)=C6CC)c(C)c5C(=O)[C@@H]4C(=O)OC)[C@@H](CCC(=O)OC/C=C(\C)CCC[C@H](C)CCC[C@H](C)CCCC(C)C)[C@@H]3C.[Mg+2]` [Chlorophyll A], the “interproximal caries observed with probe” value ([3]; excitation light, emission detected, FIG. 9) is listed as “Interproximal caries were observed”, the “optical signal … with bound probe (photograph)” value [3] is listed as “Fluorescence of an early stage caries lesion was observed” and the known toxicity [4] is listed as “no known toxicity”.
For `OO` [hydrogen peroxide], the “% OsteoSense 750 removed (g)” value [5] was 80% and 93% and 88%.
In the case of `COc1cccc2c1C(=O)c1c(O)c3c(c(O)c1C2=O)C[C@@](O)(C(=O)CO)C[C@@H]3O[C@H]1C[C@H](N)[C@H](O)[C@H](C)O1` [Doxorubicin], the “optical signal … with bound probe (photograph)” value [3] is reported as “Fluorescence of an early stage caries lesion was observed”.

— US8647119B1, “Methods and kits with fluorescent probes for caries detection” (President and Fellows of Harvard College, priority 2006, dated 2014)
